≈ marks a conversion by molar mass, not a printed value. Where “and” joins values, the source holds several entries; their conditions need not be identical. Equal values may be shown once. Read-outs that look alike come from different tables or passages of the source.
What was measured:
S. aureus 1199B = experiment: microbe, parasite or virus in culture; format: cell-based, Staphylococcus aureus; conditions: for MIC: Staphylococcus aureus, 1199B; for MIC (mM) S. aureus 1199B: lowest concentration with no visible growth; for MIC 1199B: total molecular concentration
Method: Next generation SSAs 3, 5, 7, and 9 were specifically designed to increase the activity of SSAs against both drug susceptible and resistant S. aureus and ovarian cancer cells. […] These strains include: (i) USA300, a common clinically relevant, methicillin resistant strain;[47] […]
Section S3: Biological methods […]
Preparation of bacterial plates : Sterile TSB agar plates were streaked using the desired […]
Preparation of inoculum: An initial culture was made up by inoculating TSB (5 mL) with 3 single colonies of the desired bacteria under sterile conditions and incubated at 37 °C overnight. The optical density at 600 nm (OD 600) was adjusted using sterile distilled H 2O (dH2O) to equal ~1 x 10^6 bacteria/mL.
Preparation of 96 -well microplate : A solution of each compound in H2O/5 % EtOH was made […]
The compound solution (200 […]
µL) was added to and diluted 50:50 down the plate. The bacterial suspension (100 µL) was dispensed into each well under sterile conditions. […]

[1] = 1H NMR dilution study, self-association constants (Bindfit v0.5); format: physicochemical; conditions: 298 K; for Kdim, CoEK model / Ke, CoEK model / Ke, EK model / ρ, CoEK model: DMSO-d6/0.5 % H2O; for Kdim / Kdim (M^-1): equal K/dimerization model, DMSO-d6 0.5% H2O
Method: This enables the quantification of parameters such as SSA anion dimerization constant which we have shown to correlate with critical aggregation concentration (CAC) values obtained from aqueous solutions of that same SSA.[30]
Figure S40 – Graph illustrating the 1H NMR down-field change in chemical shift of urea NH
resonances with increasing concentration of 9 in DMSO-d6/0.5 % H2O (298 K).
Self-association constant calculation: values were calculated from data gathered from both
NH’s and fitted to the Cooperative Equal K (CoEK) and Equal K/ dimerization binding models.
Equal K/Dimerization model:
Table S8- The self-association constants (Ke and Kdim) calculated for 3, 5, 7 and 9 in DMSO-d6/
0.5 % H2O solution at 298 K. Constants were obtained for the EK and CoEK models by fitting
1H NMR self-association data to Bindfit v0.5.
EK model (M-1) CoEK model (M-1)
Compound Ke Error Kdim Error Ke Error Kdim Error ⍴ Error
(± %) (± %) (± %) (± %) (± %)
(1 picture or pasted object on this page, not shown here)

[2] = Quantitative 1H NMR, D2O 5% EtOH (self-association); format: physicochemical; conditions: 5.56 mM, 298 K, proportion NMR silent
Description: However, when supplied as a 1 : 1 enantiomeric mixture, although the trend in increased incorporation of 7 + 9 over 3 + 5 into the higher order aggregate structure was retained from previous observations in polar organic solvents, the total proportion of SSA incorporated into these higher order structures was approximately 20% lower (from ≈ 50% to ≈ 30%) for the 1 : 1 enantiomeric mixture of 3 + 5 over the homogenous solution of those same SSAs.

[3] = Surface tension (pendant drop) / CAC determination, H2O 5% EtOH; format: physicochemical; conditions: for Surface tension (mN m^-1): H2O 5% EtOH, at limit of SSA solubility = 5.56 mM; for CAC: H2O/5 % EtOH, above the limit of solubility
Description: Here, the CAC is defined as the concentration at which any additional SSA added to a solution will result in the production of high-order self-associated species. […] To determine CAC, we used the pendant drop method to elucidate the surface tension of H2O 5% EtOH solutions of 1, 3, 5, 7, 9, and 1 : 1 SSA enantiomeric mixtures at 291 K (Table 2).

[4] = 15 h, read-out: MIC 1199B, total molecular concentration, after 900 min
[5] = read-out: MIC (mM) S. aureus 1199B, lowest concentration with no visible growth

## O=C(O)CNC(=O)Nc1ccc(C(F)(F)F)cc1 [SSA 1]
S. aureus 1199B; [4]
  MIC: > 2.78 mM
S. aureus 1199B; [5]
  MIC: > 2.78 mM

## CC(C)CC(NC(=O)Nc1ccc(C(F)(F)F)cc1)C(=O)O (stereo not shown) [SSA 3]
[1]; listed as 3
  Kdim, CoEK model: 280.45 M⁻¹
  Ke, CoEK model: 560.90 M⁻¹
  Ke, EK model: 242.72 M⁻¹
  ρ, CoEK model: 2.29
  Kdim: 121.36 M⁻¹
  Kdim (M^-1): 121 (±1.9%) M^−1
[2]; listed as 3
  Q NMR (%) SSA anion: 50%
  Q NMR (%) SSA cation: 44%
[3]; listed as 3
  Surface tension (mN m^-1): 40.92 mN m^−1 and 40.92 ^c mN m^−1
[3]
  CAC: > 5.56 mM
S. aureus 1199B; listed as 3
  MIC (mM) S. aureus 1199B: 0.087 mM (≈ 27.7 µg/mL)
S. aureus 1199B; after 900 min, listed as 3
  MIC 1199B: 87 µM (≈ 27.7 µg/mL)

## CC(C)CC(NC(=O)Nc1ccc(C(F)(F)F)cc1)C(=O)O (stereo not shown) [SSA 5]
[1]; listed as 5
  Kdim, CoEK model: 175.90 M⁻¹
  Ke, CoEK model: 351.80 M⁻¹
  Ke, EK model: 180.55 M⁻¹
  ρ, CoEK model: 3.41
  Kdim: 90.27 M⁻¹
  Kdim (M^-1): 90 (±3.2%) M^−1
[2]; listed as 5
  Q NMR (%) SSA anion: 52%
  Q NMR (%) SSA cation: 48%
[3]; listed as 5
  Surface tension (mN m^-1): 40.92 mN m^−1 and 40.92 ^c mN m^−1
S. aureus 1199B; listed as 5
  MIC (mM) S. aureus 1199B: 2.780 mM (≈ 885 µg/mL)
S. aureus 1199B; after 900 min, listed as 5
  MIC 1199B: 2780 µM (≈ 885 µg/mL)

## O=C(Nc1ccc(C(F)(F)F)cc1)N[C@@H](Cc1ccccc1)C(=O)O [SSA 7]
[1]
  Kdim, CoEK model: 10.58 M⁻¹
  Ke, CoEK model: 21.17 M⁻¹
  Ke, EK model: 55.52 M⁻¹
  ρ, CoEK model: 2.86
  Kdim: 27.76 M⁻¹
  Kdim (M^-1): 28 (±2.1%) M^−1
[2]
  Q NMR (%) SSA anion: 51%
  Q NMR (%) SSA cation: 48%
[3]
  Surface tension (mN m^-1): 39.83 mN m^−1 and 39.83 ^c mN m^−1
  CAC: > 5.56 mM
S. aureus 1199B; [4]
  MIC: 0.174 mM (≈ 61.3 µg/mL)
S. aureus 1199B; [5]
  MIC: 0.174 mM (≈ 61.3 µg/mL)

## O=C(Nc1ccc(C(F)(F)F)cc1)N[C@H](Cc1ccccc1)C(=O)O [SSA 9]
[1]
  Kdim, CoEK model: 8.92 M⁻¹
  Ke, CoEK model: 17.84 M⁻¹
  Ke, EK model: 45.90 M⁻¹
  ρ, CoEK model: 2.62
  Kdim: 22.95 M⁻¹
  Kdim (M^-1): 23 (±2.5%) M^−1
[2]
  Q NMR (%) SSA anion: 58%
  Q NMR (%) SSA cation: 53%
[3]
  Surface tension (mN m^-1): 39.64 mN m^−1 and 39.64 ^c mN m^−1
  CAC: > 5.56 mM
S. aureus 1199B; [4]
  MIC: 0.174 mM (≈ 61.3 µg/mL)
S. aureus 1199B; [5]
  MIC: 0.174 mM (≈ 61.3 µg/mL)
